“Also recorded” adds a separate entry of the source.

The test system of assay [1] is SH-SY5Y cells. Description: H2O2-EC50 of hydralazine and its analogs (protection from H2O2 stress). Type of assay: cell-based. The following applies: Homo sapiens. How it is done:
To generate intracellular aldehydes, the inventors treated human neuroblastoma cell line (SH-SY5Y) with 100 μM hydrogen peroxide (H2O2) for 24 h. Carbonyl groups were quantified using 2,4-DNPH (dinitrophenylhydrazine) assay.
Cell Viability and Cytotoxicity Assay. Cell growth was analyzed using the MTT cell viability assay. Briefly, at the end of incubation/treatment, MTT reagent was diluted in culture medium and aliquoted into each well. After incubation for 2 hours, the medium was aspirated and DMSO was aliquoted into each well to disrupt the cells and dissolve the intracellular MTT dyes. Absorbance was read at 570 nm wavelength in a 96-well plate reader. Cell toxicity was detected using a LDH cell toxicity assay kit (Promega, Fitchburg Wis.). This is a coupled enzymatic assay that detects a visible color signal initially described by Nachlas et. al. The reagent contained excess concentrations of lactate and NAD+as substrates to drive the LDH reaction and produce NADH. In the presence of diaphorase, NADH drives the enzyme-catalyzed conversion of iodonitro-tetrazolium violet to a red formazan product. Briefly, DMEM medium was withdrawn from each well of the plate after treatment and briefly centrifuged to get rid of floating cells or cell debris. Then, the medium supernatant was mixed with equal volume of substrate/enzyme mixture included in the kit (lactate, NAD+, diaphorase and iodonitro-tetrazolium violet), followed by incubation at room temperature for 15 minutes before the addition of acetic acid to cease the reaction. The absorbance was read at 490 nm in a 96-well plate reader. […] Cell viability assay was performed using CellTiter-Glo assay.

The next assay concerns C. elegans. The experiment in a line: Rotenone stress test in worms. Type of assay: in vivo. The following applies: in vivo. From the text:
The inventors again used rotenone to elicit PD-like changes.
Rotenone stress test. […] After 3 days young adult worms were transferred to fresh NGM plates either preloaded with rotenone alone or rotenone plus any of the abovementioned compounds. Every worm was subjected to prodding test with a worm pick every day. A worm was scored as dead when not responding to three repeated proddings. Survival curve was plotted using Prism 7.

The test system of another assay is Nrf2. The following applies: SH-SY5Y, 5 μM sulforaphane. How it is done:
The inventors quantified Nrf2 protein in treated cells as a first step towards validating the prediction of the Nrf2 pathway.
Nrf2 phosphorylation on serine 40 is a regulatory modification required for Nrf2 translocation to nucleus and downstream protein activation.
Western Blot Analysis. Protein expression was determined by Western blot analysis. Equal amount of protein from each sample was run in Tris-glycine SDS PAGE gel, followed by transferring to PVDF membrane. After blocking the membrane with 5% milk for 1 hour at room temperature, the membrane was incubated further for 2 hours with antibodies specific for target proteins: Nrf2, pNrf2(S40) from Novus (Littleton, Colo.); Keap1, HO-1, NQO1, GCLc, GCLm and lamin B1 from Cell Signaling (Danvers, Mass.); GAPDH from Santa Cruz (Dallas, Tex.); β-Actin from Thermo Fisher (Waltham, Mass.). The membrane was subsequently incubated with species-specific HRP-conjugated secondary antibody followed by incubation with chemiluminescence substrate and imaging. The band intensity of each of the target proteins was quantified using ImageQuant software (GE Healthcare, Sweden). Western blot analysis on worm lystaes was done similarly. […] Equal amounts of protein were run on the gel and SKN-1 protein level was detected using anti-GFP antibody.
Cell Fractionation. Nuclear and cytoplasmic fractions were separated using the protocol and NE-PER Nuclear and Cytoplasmic Extraction Reagents provided by […]. Briefly, the cells were harvested and washed with ice-cold PBS buffer. The cells were resuspended in ice-cold CER-I buffer and incubated on ice for 10 minutes, followed by addition of CER-II buffer and incubation for one more minute on ice. The lysate was centrifuged at 16,000 g for 5 minutes. The supernatant was the cytoplasmic fraction. The pellet obtained was lysed in ice-cold NER buffer to obtain nuclear protein fractions.

Assay [2] relates to SH-SY5Y cells. The experiment in a line: Mitochondrial membrane potential (TMRE). Type of assay: cell-based, human. The following applies: hydralazine 0, 10, 20 μM; isoniazid 20 μM. The protocol: Cells were stained by TMRE to tag active mitochondria. Florescence signal was quantified by Flow Jo software. […] ATP levels were measured by bioluminescent detection of luciferase activity. All data are presented normalized to cell number.
The mitochondrial membrane potential was measured as an indicator of cellular energetics and ATP content.

For the molecule `NNc1nnc(O)c2ccccc12` [4-Hydrazinylphthalazin-1-ol, 4-Hydrazinylphthalazin-1-ol], in the assay on SH-SY5Y cells [1], the half-maximal effective concentration (EC50) is not below 10 µM.

`[Cl-].[Na+]` [NaCl]: in the assay with C. elegans, the “protection against rotenone-induced death” value was “No protection; also recorded: did not protect worms”.

`O=c1[nH]ncc2ccccc12` [Phthalazin-1(2H)-one]: the EC50 in the assay with SH-SY5Y cells [1] is not below 50 µM.

As for `NNc1nnc(Cl)c2ccccc12` [1-Chloro-4-hydrazinyl-phthalazine, 1-Chloro-4-hydrazinylphthalazine], in the assay with SH-SY5Y cells [1], the EC50 was not below 20 µM.

On to `C#CCOc1nnc(NN)c2ccccc12` [1-Hydrazinyl-4-(prop-2-yn-1-yloxy)phthalazine], for which, in the assay on SH-SY5Y cells [1], the EC50 amounted to 4.32 µM.

`C[S+]([O-])CCCCN=C=S` (centres unmarked) [sulforaphane]: in the assay with Nrf2, the “phosphorylation and nuclear localization of Nrf2 (positive control)” value is given as “caused similar changes”.

`Oc1nnc(Cl)c2ccccc12` [4-Chlorophthalazin-1-ol] displayed an EC50 with SH-SY5Y cells [1] not below 20 µM.

Molecule `Cc1nc2c3ccccc3c(NN)nn2n1` [6-Hydrazinyl-2-methyl-[1,2,4]triazolo[5,1-a]phthalazine] displayed an EC50 with SH-SY5Y cells [1] not below 50 µM.

`NNC(=O)c1ccncc1` [Isonicotinohydrazide]: the “mitochondrial membrane potential / mitochondrial function (TMRE)” value in the assay on SH-SY5Y cells [2] is “did not have a positive effects on mitochondrial function”. The molecule also registered an EC50 with SH-SY5Y cells [1] not below 50 µM.

Consider `CN(C)Nc1nncc2ccccc12`, for which the EC50 with SH-SY5Y cells [1] was not below 50 µM.

Usually EC50 stands for the concentration at which the effect is half-maximal. The low end stands for an effect from little substance, the high end for a need for much substance.

The values above are taken from patent publication US20190298717A1 (BOARD OF REGENTS, THE UNIVERSITY OF TEXAS SYSTEM, priority 2016, published 2019).
